Measured values: patent publication US11053219B2, “Substituted pyridines as TYK2 inhibitors” (FronThera U.S. Pharmaceuticals LLC, priority 2018, dated 2021)
pIC50, pKd: −log10 of the molar value. Where two headings read alike, the source gives them in different places.

Experiments:
[1] = system: IL12-induced p-STAT4 in human PBMC; assay: IL-12 induced pSTAT4 in human PBMC; format: cell-based; details: read-out: p-STAT4 IC50
TYK2 (JH2 domain) = TYK2 (JH2 domain) (Homo sapiens (Human), UniProt P29597); assay: TYK2 JH2 domain binding assay (DiscoverX KINOMEscan); details: 11-point 3-fold dilution, duplicate
TYK2 (JH2 domain), sequence (P29597 589-875): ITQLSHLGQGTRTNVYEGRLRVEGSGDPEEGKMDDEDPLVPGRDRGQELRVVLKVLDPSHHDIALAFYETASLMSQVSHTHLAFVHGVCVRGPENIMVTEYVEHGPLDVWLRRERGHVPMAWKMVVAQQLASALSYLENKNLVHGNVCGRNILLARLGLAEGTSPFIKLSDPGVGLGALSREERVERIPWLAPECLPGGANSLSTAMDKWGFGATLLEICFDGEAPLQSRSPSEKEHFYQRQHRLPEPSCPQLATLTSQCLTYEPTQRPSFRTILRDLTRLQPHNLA

[2] = system: INFα induced pSTAT5 in human PBMC; assay: INFα induced pSTAT5 in human PBMC; format: cell-based; details: human PBMC, INFα 5000 units/ml; read-out: p-STAT5 IC50

| SMILES | pKd (TYK2 (JH2 domain)) | pIC50 [2] | other results |
| --- | --- | --- | --- |
| [2H]C([2H])([2H])NC(=O)c1nnc(N2CCN(CC(C)C)C2=O)cc1Nc1cccc(-c2ncn(C)n2)c1OC [Example 17, 6-(3-isobutyl-2-oxo-imidazolidin-1-yl)-4-[2-methoxy-3-(1-methyl-1,2,4-triazol-3-yl)anilino]-N-(trideuteriomethyl)pyridazine-3-carboxamide] | ≥ 9.00 |  | pIC50 ([1]; human PBMC, IL-12 10 ng/ml): > 7.00 |
| [2H]C([2H])([2H])NC(=O)c1nnc(N2CCN(C3CCCC3)C2=O)cc1Nc1cccc(-c2ncn(C)n2)c1OC [Example 18, 6-(3-cyclopentyl-2-oxo-imidazolidin-1-yl)-4-[2-methoxy-3-(1-methyl-1,2,4-triazol-3-yl)anilino]-N-(trideuteriomethyl)pyridazine-3-carboxamide] | ≥ 9.00 |  | pIC50 ([1]; human PBMC, IL-12 10 ng/ml): > 7.00 |
| [2H]C([2H])([2H])NC(=O)c1nnc(N2CCN(C34CC(C3)C4)C2=O)cc1Nc1cccc(-c2ncn(C)n2)c1OC [Example 19, 6-[3-(3-bicyclo[1.1.1]pentanyl)-2-oxo-imidazolidin-1-yl]-4-[2-methoxy-3-(1-methyl-1,2,4-triazol-3-yl)anilino]-N-(trideuteriomethyl)pyridazine-3-carboxamide] | ≥ 9.00 |  | pIC50 ([1]; human PBMC, IL-12 10 ng/ml): > 7.00 |
| [2H]C([2H])([2H])NC(=O)c1nnc(N2CCN(C3CCC3)C2=O)cc1Nc1cccc(-c2ncn(C)n2)c1OC([2H])([2H])[2H] [Example 20, 6-(3-cyclobutyl-2-oxo-imidazolidin-1-yl)-4-[3-(1-methyl-1,2,4-triazol-3-yl)-2-(trideuteriomethoxy)anilino]-N-(trideuteriomethyl)pyridazine-3-carboxamide] | ≥ 9.00 |  | pIC50 ([1]; human PBMC, IL-12 10 ng/ml): > 7.00 |
| [2H]C([2H])([2H])NC(=O)c1nnc(N2CCN(C(C([2H])([2H])[2H])C([2H])([2H])[2H])C2=O)cc1Nc1cccc(-c2ncn(C([2H])([2H])[2H])n2)c1OC [Example 21, 6-(3-isopropyl-2-oxo-imidazolidin-1-yl)-4-[2-methoxy-3-(1-methyl-1,2,4-triazol-3-yl)anilino]-N-(trideuteriomethyl)pyridazine-3-carboxamide] | ≥ 9.00 |  | pIC50 ([1]; human PBMC, IL-12 10 ng/ml): > 7.00 |
| [2H]C([2H])([2H])NC(=O)c1nnc(N2CCN(C3CCC3)C2=O)cc1Nc1cccc(-c2ncn(C([2H])([2H])[2H])n2)c1OC [Example 22, 6-(3-cyclobutyl-2-oxo-imidazolidin-1-yl)-4-[2-methoxy-3-[1-(trideuteriomethyl)-1,2,4-triazol-3-yl]anilino]-N-(trideuteriomethyl)pyridazine-3-carboxamide] | ≥ 9.00 |  | pIC50 ([1]; human PBMC, IL-12 10 ng/ml): > 7.00 |
| [2H]C([2H])([2H])NC(=O)c1nnc(NC(=O)N2CCC2)cc1Nc1cccc(-c2ncn(C)n2)c1OC [Example 28] | ≥ 9.00 | > 7.00 |  |
| [2H]C([2H])([2H])NC(=O)c1nnc(NC(=O)N2CCCC2)cc1Nc1cccc(-c2ncn(C)n2)c1OC [Example 29] | ≥ 9.00 |  | pIC50 ([1]; Homo sapiens, PBMC): > 7.00 |
| CNC(=O)c1nnc(NC(=O)N2CCC2)cc1Nc1cccc(-c2ncn(C)n2)c1OC [Example 30] | ≥ 9.00 |  | pIC50 ([1]; human PBMC, IL-12 10 ng/ml): > 7.00 |
| [2H]C1([2H])CN(C(=O)Nc2cc(Nc3cccc(-c4ncn(C)n4)c3OC)c(C(=O)NC([2H])([2H])[2H])nn2)C1 [Example 31] |  |  | pIC50 ([1]; human PBMC, IL-12 10 ng/ml): > 7.00 |
| [2H]C([2H])([2H])NC(=O)c1nnc(NC(=O)N2CC3(CCC3)C2)cc1Nc1cccc(-c2ncn(C)n2)c1OC [Example 32] | ≥ 9.00 |  | pIC50 ([1]; Homo sapiens, PBMC): > 7.00 |
| COc1c(Nc2cc(NC(=O)N3CCC3)ncc2C(=O)C2CC2)cccc1-c1ncn(C)n1 [Example 33] | ≥ 9.00 |  | pIC50 ([1]; Homo sapiens, PBMC): > 7.00 |
| [2H]C([2H])([2H])Oc1c(Nc2cc(NC(=O)C3CC3)ncc2C(=O)C2CC2)cccc1-c1ncn(C)n1 [Example 34] |  |  | pIC50 ([1]; Homo sapiens, PBMC): > 7.00 |
| COc1c(Nc2cc(NC(=O)C(C)C)ncc2C(=O)C2CC2)cccc1-c1ncn(C)n1 [Example 36] | ≥ 9.00 |  | pIC50 ([1]; human PBMC, IL-12 10 ng/ml): > 7.00 |
| [2H]C([2H])([2H])NC(=O)c1nnc(NC(=O)N2CC(F)(F)C2)cc1Nc1cccc(-c2ncn(C)n2)c1OC [Example 47] | ≥ 9.00 |  | pIC50 ([1]; human PBMC, IL-12 10 ng/ml): > 7.00 |
| COc1c(Nc2cc(Nc3cc(F)ccn3)ncc2C(=O)C2CC2)cccc1-c1ncn(C)n1 [Example 108] | ≥ 9.00 | > 7.00 |  |
| CC(C)(O)c1ccc(Nc2cc(Nc3ncccc3S(C)(=O)=O)c(C(=O)C3CC3)cn2)nc1 [Example 126] | ≥ 9.00 | > 7.00 |  |
| [2H]C([2H])([2H])NC(=O)c1nnc(NC(=O)N2CC(C#N)C2)cc1Nc1cccc(-c2ncn(C)n2)c1OC [Example 144] |  | > 7.00 |  |
| COc1c(Nc2cc(Nc3cc(C)c(F)cn3)ncc2C(=O)C2CC2)cccc1-c1ncn(C)n1 [Example 145] | ≥ 9.00 | > 7.00 |  |
| [2H]C([2H])([2H])NC(=O)c1cnc(NC(=O)N2CC(C)(C)C2)cc1Nc1cccc(-c2ncn(C)n2)c1OC [Example 148] |  | > 7.00 |  |
| COc1c(Nc2cc(Nc3ccc(N4CCOCC4=O)cn3)ncc2C(=O)C2CC2)cccc1-c1ncn(C)n1 [Example 149] |  | > 7.00 |  |
| [2H]C([2H])([2H])NC(=O)c1nnc(NC(=O)N2CC3(CC3)C2)cc1Nc1cccc(-c2ncn(C)n2)c1OC [Example 150] |  | > 7.00 |  |
| [2H]C([2H])([2H])NC(=O)c1nnc(NC(=O)N2CC(F)(C#N)C2)cc1Nc1cccc(-c2ncn(C)n2)c1OC [Example 151] |  | > 7.00 |  |
| COc1c(Nc2cc(Nc3cnc(C)cn3)ncc2C(=O)C2CC2)cccc1-c1ncn(C)n1 [Example 152] |  | > 7.00 |  |
| COc1c(Nc2cc(Nc3ccnc(C)n3)ncc2C(=O)C2CC2)cccc1-c1ncn(C)n1 [Example 153] |  | > 7.00 |  |
| COc1c(Nc2cc(Nc3cc(C)ncn3)ncc2C(=O)C2CC2)cccc1-c1ncn(C)n1 [Example 154] |  | > 7.00 |  |

| SMILES | pKd (TYK2 (JH2 domain)) | pIC50 [2] | other results |
| --- | --- | --- | --- |
| COc1c(-c2ncn(C)n2)ccnc1Nc1cc(Nc2ccc(C)nn2)ncc1C(=O)C1CC1 [Example 155] |  | > 7.00 |  |
| [2H]C([2H])([2H])NC(=O)c1nnc(NC(=O)N2CC(C)(C)C2)cc1Nc1cccc(-c2ncn(C([2H])([2H])[2H])n2)c1OC [Example 156] |  | > 7.00 |  |
| [2H]C([2H])([2H])NC(=O)c1nnc(NC(=O)N2CC(C(F)F)C2)cc1Nc1cccc(-c2ncn(C)n2)c1OC [Example 157] |  | > 7.00 |  |
| [2H]C([2H])([2H])NC(=O)c1nnc(NC(=O)N2CC(OC)C2)cc1Nc1cccc(-c2ncn(C)n2)c1OC [Example 158] |  | > 7.00 |  |
| [2H]C([2H])([2H])NC(=O)c1nnc(N2CCN(C(C)C)C2=O)cc1Nc1nccc(-c2ncn(C([2H])([2H])[2H])n2)c1OC [Example 160, 6-(3-isopropyl-2-oxo-imidazolidin-1-yl)-4-[[3-methoxy-4-[1-(trideuteriomethyl)-1,2,4-triazol-3-yl]-2-pyridyl]amino]-N-(trideuteriomethyl)pyridazine-3-carboxamide] |  | > 7.00 |  |
| COc1c(Nc2cc(NC(=O)[C@@H]3C[C@@H]3F)ncc2C(=O)C2CC2)cccc1-c1ncn(C)n1 [Example 161] |  | > 7.00 |  |
| [2H]C([2H])([2H])NC(=O)c1nnc(NC(=O)N2CCC2C)cc1Nc1cccc(-c2ncn(C)n2)c1OC (centres unmarked) [Example 164, 4-((2-methoxy-3-(1-methyl-1H-1,2,4-triazol-3-yl)phenyl)amino)-N-(methyl-d3)-6-(2-methylazetidine-1-carboxamido)pyridazine-3-carboxamide] |  | > 7.00 |  |
| [2H]C([2H])([2H])NC(=O)c1nnc(NC(=O)N2CC(C)(O)C2)cc1Nc1cccc(-c2ncn(C)n2)c1OC [Example 165] |  | 6.00 to 7.00 |  |
| [2H]C([2H])([2H])NC(=O)c1nnc(NC(=O)N2CC(CO)C2)cc1Nc1cccc(-c2ncn(C)n2)c1OC [Example 169] |  | > 7.00 |  |
| [2H]C([2H])([2H])CC(=O)c1cnc(NC(=O)C2CC2)cc1Nc1cccc(-c2ncn(C)n2)c1OC [Example 171] |  | > 7.00 |  |
| [2H]C([2H])([2H])CC(=O)c1cnc(Nc2ccc(C(C)(C)O)cn2)cc1Nc1ncccc1S(C)(=O)=O [Example 172] |  | > 7.00 |  |
| COc1c(Nc2cc(Nc3ncc[nH]3)ncc2C(=O)C2CC2)cccc1-c1ncn(C)n1 [Example 173] |  | 6.00 to 7.00 |  |
| CCC(=O)c1cnc(Nc2ccc(C(C)(C)O)c(F)n2)cc1Nc1ncccc1S(C)(=O)=O [Example 174] |  | > 7.00 |  |
| CCC(=O)c1cnc(Nc2cccc(C#N)n2)cc1Nc1nccc(-c2ncn(C)n2)c1OC [Example 175] |  | > 7.00 |  |
| CCC(=O)c1cnc(Nc2cccc(C#N)n2)cc1Nc1ncccc1S(C)(=O)=O [Example 176] |  | > 7.00 |  |
| CCC(=O)c1cnc(Nc2cccc(C#N)n2)cc1Nc1cccc(-c2ncn(C)n2)c1OC [Example 177] |  | > 7.00 |  |
| CCC(=O)c1cnc(Nc2cc(C)n(C)n2)cc1Nc1cccc(-c2ncn(C)n2)c1OC [Example 178] |  | > 7.00 |  |
| CCC(=O)c1cnc(Nc2cc(C)n(C)n2)cc1Nc1ncccc1S(C)(=O)=O [Example 179] |  | > 7.00 |  |
| CCC(=O)c1cnc(Nc2cc(C)n(C)n2)cc1Nc1nccc(-c2ncn(C)n2)c1OC [Example 180] |  | > 7.00 |  |
| [2H]C([2H])([2H])CC(=O)c1cnc(Nc2ccc(C(C)(C)O)c(F)n2)cc1Nc1ncccc1S(C)(=O)=O [Example 184] |  | > 7.00 |  |
| [2H]C([2H])([2H])CC(=O)c1cnc(Nc2ccc(C(C)(C)O)c(F)n2)cc1Nc1nccc(-c2ncn(C)n2)c1OC [Example 185] |  | > 7.00 |  |
| [2H]C([2H])([2H])n1cnc(-c2cccc(Nc3cc(NC(=O)C4CC4)ncc3C(=O)CC)c2OC)n1 [Example 189] |  | > 7.00 |  |
| [2H]C([2H])([2H])CC(=O)c1cnc(Nc2ccc(C)nn2)cc1Nc1ncccc1S(C)(=O)=O [Example 190] |  | > 7.00 |  |
| [2H]C([2H])([2H])CC(=O)c1cnc(Nc2cc(C)nc(C)n2)cc1Nc1ncccc1S(C)(=O)=O [Example 191] |  | > 7.00 |  |
| [2H]C([2H])([2H])CC(=O)c1cnc(NC(=O)C2CC2)cc1Nc1nccc(-c2ncn(C)n2)c1OC [Example 193] |  | > 7.00 |  |
| COc1c(Nc2cc(Nc3nc(C)c[nH]3)ncc2C(=O)C2CC2)cccc1-c1ncn(C)n1 [Example 196] |  | 6.00 to 7.00 |  |
